Measurements taken from PubChem BioAssay AID2060505 (Molecular Pharmacology Branch, DTP, NCI, 2025).

Tested on: 633275-114-R-J1-PDC complex spheroids, viability
Assay: Anticancer human tumor 633275-114-R-J1-PDC patient-derived endometrial adenocarcinoma cell line growth inhibition [GQUAD]
Settings: for IC50: curve of first compound; for viability, T/C: stronger effect = lower value
How it was run: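 Multi-cell-type spheroids of tumor cells with HUVEC and mesenchymal stem cells, treated with drug combinations. Concentrations descend in half-log steps from near clinical Cmax, or from 10 microM where Cmax is unknown; viability read-out.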

[1] = second compound 0.0316 µM, first compound 0.0316 µM
[2] = second compound 0.0316 µM, first compound 0.1 µM
[3] = second compound 0.0316 µM, first compound 0.316 µM
[4] = second compound 0.0316 µM, first compound 1 µM
[5] = second compound 0.0316 µM, first compound 3.16 µM
[6] = second compound 0.0316 µM, first compound 10 µM
[7] = second compound 0.1 µM, first compound 0.0316 µM
[8] = second compound 0.1 µM, first compound 0.1 µM
[9] = second compound 0.1 µM, first compound 0.316 µM
[10] = second compound 0.1 µM, first compound 1 µM
[11] = second compound 0.1 µM, first compound 3.16 µM
[12] = second compound 0.1 µM, first compound 10 µM
[13] = second compound 0.316 µM, first compound 0.0316 µM
[14] = second compound 0.316 µM, first compound 0.1 µM
[15] = second compound 0.316 µM, first compound 0.316 µM
[16] = second compound 0.316 µM, first compound 1 µM
[17] = second compound 0.316 µM, first compound 3.16 µM
[18] = second compound 0.316 µM, first compound 10 µM
[19] = second compound 1 µM, first compound 0.0316 µM
[20] = second compound 1 µM, first compound 0.1 µM
[21] = second compound 1 µM, first compound 0.316 µM
[22] = second compound 1 µM, first compound 1 µM
[23] = second compound 1 µM, first compound 3.16 µM
[24] = second compound 1 µM, first compound 10 µM
[25] = second compound 3.16 µM, first compound 0.0316 µM
[26] = second compound 3.16 µM, first compound 0.1 µM
[27] = second compound 3.16 µM, first compound 0.316 µM
[28] = second compound 3.16 µM, first compound 1 µM
[29] = second compound 3.16 µM, first compound 3.16 µM
[30] = second compound 3.16 µM, first compound 10 µM
[31] = second compound 10 µM, first compound 0.0316 µM
[32] = second compound 10 µM, first compound 0.1 µM
[33] = second compound 10 µM, first compound 0.316 µM
[34] = second compound 10 µM, first compound 1 µM
[35] = second compound 10 µM, first compound 3.16 µM
[36] = second compound 10 µM, first compound 10 µM
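Note: spheroids exposed to the agents for seven days.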
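Throughout, for viability, T/C: percent of DMSO vehicle control viability which is 100%.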

C=CCn1c(=O)c2cnc(Nc3ccc(N4CCN(C)CC4)cc3)nc2n1-c1cccc(C(C)(C)O)n1 + Cc1cnc(CNC(=O)c2c(=O)c3ccc(N4CCCN(C)CC4)nc3n3c2sc2ccccc23)cn1
IC50 (second compound 0.0316 µM): 129 nM
IC50 (second compound 0.1 µM): < 31.6 nM
IC50 (second compound 0.316 µM): < 31.6 nM
IC50 (second compound 1 µM): < 31.6 nM
IC50 (second compound 3.16 µM): < 31.6 nM
IC50 (second compound 10 µM): < 31.6 nM
viability, T/C [1]: 55.6%
viability, T/C [2]: 56%
viability, T/C [3]: 33.9%
viability, T/C [4]: 23.6%
viability, T/C [5]: 19.9%
viability, T/C [6]: 16.5%
viability, T/C [7]: 48.1%
viability, T/C [8]: 40%
viability, T/C [9]: 28.9%
viability, T/C [10]: 22.7%
viability, T/C [11]: 21.2%
viability, T/C [12]: 15.2%
viability, T/C [13]: 43.8%
viability, T/C [14]: 39.8%
viability, T/C [15]: 24.6%
viability, T/C [16]: 21.1%
viability, T/C [17]: 20.7%
viability, T/C [18]: 16.5%
viability, T/C [19]: 34.5%
viability, T/C [20]: 32.2%
viability, T/C [21]: 22.4%
viability, T/C [22]: 19.9%
viability, T/C [23]: 20.7%
viability, T/C [24]: 17.3%
viability, T/C [25]: 31.4%
viability, T/C [26]: 26.6%
viability, T/C [27]: 18.5%
viability, T/C [28]: 22.5%
viability, T/C [29]: 25%
viability, T/C [30]: 18.3%
viability, T/C [31]: 26.8%
viability, T/C [32]: 20.5%
viability, T/C [33]: 16.8%
viability, T/C [34]: 17.8%
viability, T/C [35]: 22.4%
viability, T/C [36]: 19.5%

CC(C)(O)C1CCC(Nc2ccc3ncc(-c4cccc(C(F)(F)F)c4)n3n2)CC1 (centres undefined) + Cc1cnc(CNC(=O)c2c(=O)c3ccc(N4CCCN(C)CC4)nc3n3c2sc2ccccc23)cn1
IC50 (second compound 0.0316 µM): 886 nM
IC50 (second compound 0.1 µM): < 31.6 nM
IC50 (second compound 0.316 µM): < 31.6 nM
IC50 (second compound 1 µM): < 31.6 nM
IC50 (second compound 3.16 µM): < 31.6 nM
IC50 (second compound 10 µM): < 31.6 nM
viability, T/C [1]: 64.2%
viability, T/C [2]: 66.3%
viability, T/C [3]: 64.7%
viability, T/C [4]: 48.2%
viability, T/C [5]: 22.2%
viability, T/C [6]: 32.5%
viability, T/C [7]: 52.1%
viability, T/C [8]: 52.7%
viability, T/C [9]: 44.5%
viability, T/C [10]: 39.9%
viability, T/C [11]: 19.4%
viability, T/C [12]: 26.1%
viability, T/C [13]: 46.1%
viability, T/C [14]: 42.3%
viability, T/C [15]: 45.5%
viability, T/C [16]: 35.8%
viability, T/C [17]: 18.6%
viability, T/C [18]: 22.3%
viability, T/C [19]: 43.8%
viability, T/C [20]: 43.5%
viability, T/C [21]: 42.6%
viability, T/C [22]: 34.6%
viability, T/C [23]: 16.5%
viability, T/C [24]: 19.8%
viability, T/C [25]: 38.3%
viability, T/C [26]: 40.4%
viability, T/C [27]: 39.7%
viability, T/C [28]: 28%
viability, T/C [29]: 0.11%
viability, T/C [30]: 7.92%
viability, T/C [31]: 30.7%
viability, T/C [32]: 33.9%
viability, T/C [33]: 30.4%
viability, T/C [34]: 15.6%
viability, T/C [35]: 0.2%
viability, T/C [36]: 0.19%
